Data taken from ChEMBL document CHEMBL1201862, “PubChem BioAssay data set” (2004).
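Test compounds were applied to cells in 96-well plates for 48 hours at 5 doses. GI50 marks 50% less growth.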 The source made the active and inactive calls. No stated cut-off is given here; in the data, active = GI50 up to about 1.1 µM and inactive = higher.

Assays:
Assay in all cases: inhibition of tumour cell growth, NCI panel, 48 h
A498 = system: A498
OVCAR-5 = system: OVCAR-5
Malme-3M = system: Malme-3M
UACC-257 = system: UACC-257
HL-60 = system: HL-60
CAKI-1 = system: CAKI-1
SK-MEL-5 = system: SK-MEL-5
HT-29 = system: HT-29
SN12C = system: SN12C
NCI-H522 = system: NCI-H522
786-0 = system: 786-0
SNB-75 = system: SNB-75
SR = system: SR
U-251 = system: U-251
SNB-19 = system: SNB-19
NCI-H226 = system: NCI-H226
SF-539 = system: SF-539
HOP-92 = system: HOP-92
HOP-62 = system: HOP-62
SK-OV-3 = system: SK-OV-3

| Structure (SMILES) | GI50 (A498) | GI50 (OVCAR-5) | GI50 (Malme-3M) | GI50 (UACC-257) | GI50 (HL-60) | GI50 (CAKI-1) | GI50 (SK-MEL-5) | GI50 (HT-29) | GI50 (SN12C) | GI50 (NCI-H522) | GI50 (786-0) | GI50 (SNB-75) | GI50 (SR) | GI50 (U-251) | GI50 (SNB-19) | GI50 (NCI-H226) | GI50 (SF-539) | GI50 (HOP-92) | GI50 (HOP-62) | GI50 (SK-OV-3) |
| --- | --- | --- | --- | --- | --- | --- | --- | --- | --- | --- | --- | --- | --- | --- | --- | --- | --- | --- | --- | --- |
| Cc1ccccc1NC(=O)C(=O)Cc1nc2ccccc2s1 | > 100 µM (inactive) | > 100 µM (inactive) | > 100 µM (inactive) | > 100 µM (inactive) | > 100 µM (inactive) | > 100 µM (inactive) | > 100 µM (inactive) | > 100 µM (inactive) | > 100 µM (inactive) | > 100 µM (inactive) | > 100 µM (inactive) | > 100 µM (inactive) | > 100 µM (inactive) | > 100 µM (inactive) | > 100 µM (inactive) | > 100 µM (inactive) | > 100 µM (inactive) | > 100 µM (inactive) | > 100 µM (inactive) | > 100 µM (inactive) |
| CC[N+]1(C)CCC(O)(c2ccc(Cl)cc2)C(C(=O)c2ccc(Cl)cc2)C1 (stereo not drawn) | 27.9 µM (inactive) | 19.1 µM (inactive) | 7.31 µM (inactive) | 24.4 µM (inactive) | 7.83 µM (inactive) |  |  | 29.1 µM (inactive) | 22.1 µM (inactive) | 1.79 µM (inactive) |  | > 10 µM (inactive) | 6.34 µM (inactive) | 24.5 µM (inactive) | 17.2 µM (inactive) | 23.8 µM (inactive) |  | > 10 µM (inactive) | 23.8 µM (inactive) | 14.6 µM (inactive) |
| NC(Cc1c[nH]c2ccccc12)P(=O)(O)O (stereo not drawn) | > 100 µM (inactive) | > 100 µM (inactive) | > 100 µM (inactive) | > 100 µM (inactive) | > 100 µM (inactive) | > 100 µM (inactive) | > 100 µM (inactive) | > 100 µM (inactive) | > 100 µM (inactive) | > 100 µM (inactive) | > 100 µM (inactive) | > 100 µM (inactive) | > 100 µM (inactive) | > 100 µM (inactive) | > 100 µM (inactive) | > 100 µM (inactive) | > 100 µM (inactive) | > 10 µM (inactive) | > 100 µM (inactive) | > 100 µM (inactive) |
| COc1nc(NC2OC(COC(C)=O)C(OC(C)=O)C(OC(C)=O)C2OC(C)=O)c(/N=C/C=N/c2c(NC3OC(COC(C)=O)C(OC(C)=O)C(OC(C)=O)C3OC(C)=O)nc(OC)n(C)c2=O)c(=O)n1C (stereo not drawn) | > 100 µM (inactive) | > 100 µM (inactive) | > 100 µM (inactive) | > 100 µM (inactive) | > 100 µM (inactive) | > 100 µM (inactive) | > 100 µM (inactive) | > 100 µM (inactive) | > 100 µM (inactive) | > 100 µM (inactive) | 51.5 µM (inactive) | 17 µM (inactive) | > 100 µM (inactive) | 30.5 µM (inactive) | 48.4 µM (inactive) | 97.5 µM (inactive) | > 100 µM (inactive) | 39 µM (inactive) | 28.1 µM (inactive) | > 88.3 µM (inactive) |
| CCN(CC)/C(Cl)=C(Cl)\C(=C1\Nc2ccc(OC)cc21)[N+](=O)[O-] | > 100 µM (inactive) | 95.7 µM (inactive) | > 100 µM (inactive) | 75.5 µM (inactive) | 32.3 µM (inactive) | 59 µM (inactive) | 28.6 µM (inactive) | 56.2 µM (inactive) | > 100 µM (inactive) | 20.2 µM (inactive) | 47.9 µM (inactive) | 15.3 µM (inactive) | 16.6 µM (inactive) | 37.5 µM (inactive) | 61 µM (inactive) | 18.9 µM (inactive) |  | > 100 µM (inactive) | 78.7 µM (inactive) | 75.5 µM (inactive) |
| CN(C)S(=O)(=O)Nc1nnc(S(N)(=O)=O)s1 | > 100 µM (inactive) | > 100 µM (inactive) | > 100 µM (inactive) |  | > 100 µM (inactive) | > 100 µM (inactive) | > 100 µM (inactive) | > 100 µM (inactive) |  | > 100 µM (inactive) | > 100 µM (inactive) | > 100 µM (inactive) | > 100 µM (inactive) | > 100 µM (inactive) | > 100 µM (inactive) | > 100 µM (inactive) | > 100 µM (inactive) | > 100 µM (inactive) | > 100 µM (inactive) | > 100 µM (inactive) |
| O=C(O)c1nc2ccccc2nc1Nc1ccc(Cl)c(Cl)c1 | 13.1 µM (inactive) | 39.6 µM (inactive) | 18.4 µM (inactive) | 31.8 µM (inactive) | 25.8 µM (inactive) | 33 µM (inactive) | 15.7 µM (inactive) |  | 20.1 µM (inactive) | 17 µM (inactive) | 20.2 µM (inactive) | 56.5 µM (inactive) | 47.9 µM (inactive) | 22.1 µM (inactive) | 24.9 µM (inactive) | 43.4 µM (inactive) | 19.9 µM (inactive) | 16.1 µM (inactive) | 16.1 µM (inactive) | 28.3 µM (inactive) |
| Nc1ncnc2c1ncn2Cc1cccc(CCl)c1 | 15.2 µM (inactive) | 14.5 µM (inactive) | 17.9 µM (inactive) | 14.8 µM (inactive) | 15 µM (inactive) | 18.8 µM (inactive) | 16.1 µM (inactive) | 22.8 µM (inactive) | 15.1 µM (inactive) | 15.1 µM (inactive) | 14.4 µM (inactive) | 30.1 µM (inactive) | 6.43 µM (inactive) | 13.8 µM (inactive) |  | 16 µM (inactive) | 14.8 µM (inactive) | 19.7 µM (inactive) | 12.7 µM (inactive) |  |
| COc1ccc2nc3ccc(OC)cc3c(S(=O)(=O)Cc3ccc([N+](=O)[O-])cc3)c2c1 | > 100 µM (inactive) | > 100 µM (inactive) | > 100 µM (inactive) | > 100 µM (inactive) | > 100 µM (inactive) | > 100 µM (inactive) |  | 68.7 µM (inactive) | > 100 µM (inactive) | > 100 µM (inactive) | 66.4 µM (inactive) | 38.7 µM (inactive) | > 100 µM (inactive) | > 100 µM (inactive) | > 100 µM (inactive) | > 100 µM (inactive) | > 100 µM (inactive) | > 100 µM (inactive) | 93.5 µM (inactive) | > 100 µM (inactive) |
| CC(CO)CCNc1ncnc2c1ncn2CCC#N (stereo not drawn) | > 100 µM (inactive) | > 100 µM (inactive) | > 100 µM (inactive) | > 100 µM (inactive) | > 100 µM (inactive) | > 100 µM (inactive) | > 100 µM (inactive) | > 100 µM (inactive) | > 100 µM (inactive) | > 100 µM (inactive) | > 100 µM (inactive) | > 100 µM (inactive) | > 100 µM (inactive) |  | > 100 µM (inactive) | > 100 µM (inactive) | > 100 µM (inactive) | > 100 µM (inactive) | > 100 µM (inactive) | > 100 µM (inactive) |
| O=C(CC(=O)c1cccc2ccccc12)C(=O)Nc1nccs1 | > 100 µM (inactive) | > 100 µM (inactive) | > 100 µM (inactive) | > 100 µM (inactive) | > 100 µM (inactive) | > 100 µM (inactive) | > 100 µM (inactive) | > 100 µM (inactive) | > 100 µM (inactive) | > 100 µM (inactive) | > 100 µM (inactive) | 66.2 µM (inactive) | > 100 µM (inactive) | > 100 µM (inactive) |  | > 100 µM (inactive) | > 100 µM (inactive) | > 100 µM (inactive) | > 100 µM (inactive) | > 100 µM (inactive) |
| Cc1ccc(/N=N/c2c(C)nn(-c3ccccc3)c2-c2ccccc2)c(Br)c1 | > 100 µM (inactive) |  | > 100 µM (inactive) | 79.8 µM (inactive) | 4.3 µM (inactive) | > 100 µM (inactive) |  | 27.6 µM (inactive) | > 100 µM (inactive) | 97.1 µM (inactive) | 32.6 µM (inactive) | > 100 µM (inactive) | 6.21 µM (inactive) |  | > 100 µM (inactive) | > 100 µM (inactive) | 20.2 µM (inactive) | 40 µM (inactive) | > 100 µM (inactive) | > 100 µM (inactive) |
| CC1ON2CCCC2[C@H]1C(=O)N1C2CC3CCC2(CS1(=O)=O)C3(C)C (stereo partly drawn) | > 100 µM (inactive) | > 100 µM (inactive) | > 100 µM (inactive) | > 100 µM (inactive) | > 100 µM (inactive) | > 100 µM (inactive) | > 100 µM (inactive) | > 100 µM (inactive) | > 100 µM (inactive) | > 100 µM (inactive) | > 100 µM (inactive) | > 100 µM (inactive) | > 100 µM (inactive) | > 100 µM (inactive) |  | > 100 µM (inactive) | > 100 µM (inactive) | > 100 µM (inactive) | > 100 µM (inactive) | > 100 µM (inactive) |
| c1ccc2c(NCCCCCCNc3c4ccccc4nc4ccccc34)c3ccccc3nc2c1 | 1.25 µM (inactive) | 0.13 µM (active) | 1.17 µM (inactive) | 2.7 µM (inactive) | 0.25 µM (active) | 1.53 µM (inactive) | 1.4 µM (inactive) | 0.0287 µM (active) | 0.137 µM (active) | 0.0893 µM (active) | 0.232 µM (active) | 0.713 µM (active) | 0.0288 µM (active) | 0.276 µM (active) | 0.649 µM (active) | 0.587 µM (active) | 0.108 µM (active) | 0.24 µM (active) | 0.206 µM (active) | 1.01 µM (active) |
